IC50 data for nine molecules are collected here from patent publication US8710038B2, “Pyrazole kinase modulators and methods of use” (Exelixis, Inc., priority 2004, dated 2014).

Each structure is given as a SMILES string.

For one experiment, the target named is c-Kit (Homo sapiens, UniProt P10721). The experiment can be described thus: c-Kit biochemical assay (AlphaScreen). From the text: (§1) AlphaScreen technology is a proximity assay which utilizes the increase in fluorescent signal occurring when donor and acceptor beads are close in proximity. Biotinylated poly(Glu,Tyr) 4:1 is used as the kinase substrate, in conjunction with streptavidin-coated donor beads and anti-phosphortyrosine antibody PY100-coated acceptor beads. Upon phosphorylation, the peptide substrate can bind to both donor and acceptor beads giving rise to an increase in fluorescence. Compounds, ATP, biotinylated poly(Glu, Tyr) and kinases are mixed in a volume of 20 uL for 1 hr at ambient temperature using Greiner 384-well white clear bottom medium binding plates. Following incubation a 10 uL solution containing […] AlphaScreen beads, 75 mM Hepes, pH 7.4, 300 mM NaCl, 120 mM EDTA, 0.3% BSA and 0.03% Tween-20 is added to each well. After 2-16 hr incubation of the beads, plates are read in a Perkin Elmer AlphaQuest reader. The IC50 values correlates well with those of radiometric assays.
c-Kit, sequence (P10721 26-976): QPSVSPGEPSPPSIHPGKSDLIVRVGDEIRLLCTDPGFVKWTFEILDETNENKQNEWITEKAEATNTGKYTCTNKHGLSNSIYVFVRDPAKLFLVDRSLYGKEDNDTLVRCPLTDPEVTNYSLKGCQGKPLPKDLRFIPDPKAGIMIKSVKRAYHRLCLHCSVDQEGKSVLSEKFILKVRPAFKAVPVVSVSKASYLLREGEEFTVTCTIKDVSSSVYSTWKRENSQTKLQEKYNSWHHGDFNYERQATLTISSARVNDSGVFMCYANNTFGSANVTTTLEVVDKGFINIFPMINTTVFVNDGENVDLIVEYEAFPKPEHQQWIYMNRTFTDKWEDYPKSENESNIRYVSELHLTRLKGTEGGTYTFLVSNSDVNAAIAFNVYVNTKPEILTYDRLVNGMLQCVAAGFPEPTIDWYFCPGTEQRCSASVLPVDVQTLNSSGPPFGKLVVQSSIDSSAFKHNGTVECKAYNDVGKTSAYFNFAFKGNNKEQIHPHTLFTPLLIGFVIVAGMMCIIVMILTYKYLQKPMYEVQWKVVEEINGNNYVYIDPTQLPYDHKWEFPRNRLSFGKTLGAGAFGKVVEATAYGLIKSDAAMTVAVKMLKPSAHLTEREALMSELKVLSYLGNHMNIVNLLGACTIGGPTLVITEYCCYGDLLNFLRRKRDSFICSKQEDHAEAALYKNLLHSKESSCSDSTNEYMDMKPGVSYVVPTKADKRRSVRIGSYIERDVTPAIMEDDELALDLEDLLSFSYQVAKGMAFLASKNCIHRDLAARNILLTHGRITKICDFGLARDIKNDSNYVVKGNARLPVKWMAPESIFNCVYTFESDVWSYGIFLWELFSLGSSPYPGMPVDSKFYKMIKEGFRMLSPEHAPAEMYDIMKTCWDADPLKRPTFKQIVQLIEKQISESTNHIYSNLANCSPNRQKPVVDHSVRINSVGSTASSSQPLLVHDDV
c-Kit biochemical activity was assessed using AlphaScreen™ (Perkin Elmer) technology, described above. Test compounds, ATP, biotinylated poly(Glu, Tyr) and c-Kit kinase were combined in a volume of 20 μL in a 384-well white, medium binding microtiter plate (Greiner). Reaction mixtures were incubated for 1 hr at ambient temperature. Reactions were quenched by addition of 10 uL of […] AlphaScreen bead suspension containing 75 mM Hepes, pH 7.4, 300 mM NaCl, 120 mM EDTA, 0.3% BSA and 0.03% Tween-20. After 16 hr incubation at ambient temperature plates were read using an AlphaQuest reader (Perkin Elmer).

The next experiment has as its target T1, flt-3 (Homo sapiens, UniProt P36888).
T1 construct: baculovirus expressed human Flt-3 kinase domain R571-S993
T1 sequence (P36888 571-993): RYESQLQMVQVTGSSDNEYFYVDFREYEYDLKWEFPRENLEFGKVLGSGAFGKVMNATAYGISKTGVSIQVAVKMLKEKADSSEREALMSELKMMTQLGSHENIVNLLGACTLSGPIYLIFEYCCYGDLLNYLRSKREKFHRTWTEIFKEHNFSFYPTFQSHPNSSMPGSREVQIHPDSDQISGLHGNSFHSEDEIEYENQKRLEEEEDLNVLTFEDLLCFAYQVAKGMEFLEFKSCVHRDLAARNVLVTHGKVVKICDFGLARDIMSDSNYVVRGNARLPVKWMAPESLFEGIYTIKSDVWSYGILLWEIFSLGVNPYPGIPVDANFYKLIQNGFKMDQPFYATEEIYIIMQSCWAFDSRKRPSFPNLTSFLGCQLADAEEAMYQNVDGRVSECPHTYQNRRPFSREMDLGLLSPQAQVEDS
The experiment can be described thus: flt-3 Luciferase-Coupled Chemiluminescent Kinase assay (LCCA). It is filed as biochemical. As to the method:
(§2) In the LCCA assays, kinase activity is measured as the percent ATP consumed following the kinase reaction using luciferase-luciferin-coupled chemiluminescence. Greiner 384-well white, clear bottom, medium-binding plates are used for LCCA. Briefly, the kinase reaction is initiated by mixing compounds, ATP and kinase in a 20 uL volume. The mixture is incubated at ambient temperature for 2-4 hrs. At the end of the kinase reaction, a 20 uL luciferase-luciferin mix is added and the chemiluminescent signal is read using a Wallac Victor^2 reader. The luciferase-luciferin mix consists of 50 mM HEPES, pH 7.8, 8.5 ug/mL oxalic acid (pH 7.8), 5 (or 50) mM DTT, 0.4% Triton X-100, 0.25 mg/mL coenzyme A, 63 uM AMP, 28 ug/mL luciferin and 40,000 units of light/mL luciferase. For the LCCA assays, total ATP consumption has been standardized to 25-45% and the IC50 values correlates well with those determined by radiometric assays.
Flt-3 biochemical activity was assessed using a Luciferase-Coupled Chemiluminescent Kinase assay (LCCA) format. Kinase activity was measured as the percent ATP remaining following the kinase reaction. Remaining ATP was detected by luciferase-luciferin-coupled chemiluminescence. Specifically, the reaction was initiated by mixing test compounds, 5 μM ATP, 3 μM poly-EY and 5 nM Flt-3 (baculovirus expressed human Flt-3 kinase domain R571-S993) in a 20 uL assay buffer (20 mM Tris-HCL pH7.5, 10 mM MgCl2, 0.01% Triton X-100, 1 mM DTT, 2 mM MnCl2). The mixture is incubated at ambient temperature for 3 hours after which 20 uL luciferase-luciferin mix is added and the chemiluminescent signal read using a Wallac Victor^2 reader. The luciferase-luciferin mix consists of 50 mM HEPES, pH 7.8, 8.5 ug/mL oxalic acid (pH 7.8), 5 (or 50) mM DTT, 0.4% Triton X-100, 0.25 mg/mL coenzyme A, 63 uM AMP, 28 ug/mL luciferin and 40,000 units of light/mL luciferase.

Another experiment addresses T2, EphB4 (Homo sapiens, UniProt P54760).
T2 sequence (P54760 16-987): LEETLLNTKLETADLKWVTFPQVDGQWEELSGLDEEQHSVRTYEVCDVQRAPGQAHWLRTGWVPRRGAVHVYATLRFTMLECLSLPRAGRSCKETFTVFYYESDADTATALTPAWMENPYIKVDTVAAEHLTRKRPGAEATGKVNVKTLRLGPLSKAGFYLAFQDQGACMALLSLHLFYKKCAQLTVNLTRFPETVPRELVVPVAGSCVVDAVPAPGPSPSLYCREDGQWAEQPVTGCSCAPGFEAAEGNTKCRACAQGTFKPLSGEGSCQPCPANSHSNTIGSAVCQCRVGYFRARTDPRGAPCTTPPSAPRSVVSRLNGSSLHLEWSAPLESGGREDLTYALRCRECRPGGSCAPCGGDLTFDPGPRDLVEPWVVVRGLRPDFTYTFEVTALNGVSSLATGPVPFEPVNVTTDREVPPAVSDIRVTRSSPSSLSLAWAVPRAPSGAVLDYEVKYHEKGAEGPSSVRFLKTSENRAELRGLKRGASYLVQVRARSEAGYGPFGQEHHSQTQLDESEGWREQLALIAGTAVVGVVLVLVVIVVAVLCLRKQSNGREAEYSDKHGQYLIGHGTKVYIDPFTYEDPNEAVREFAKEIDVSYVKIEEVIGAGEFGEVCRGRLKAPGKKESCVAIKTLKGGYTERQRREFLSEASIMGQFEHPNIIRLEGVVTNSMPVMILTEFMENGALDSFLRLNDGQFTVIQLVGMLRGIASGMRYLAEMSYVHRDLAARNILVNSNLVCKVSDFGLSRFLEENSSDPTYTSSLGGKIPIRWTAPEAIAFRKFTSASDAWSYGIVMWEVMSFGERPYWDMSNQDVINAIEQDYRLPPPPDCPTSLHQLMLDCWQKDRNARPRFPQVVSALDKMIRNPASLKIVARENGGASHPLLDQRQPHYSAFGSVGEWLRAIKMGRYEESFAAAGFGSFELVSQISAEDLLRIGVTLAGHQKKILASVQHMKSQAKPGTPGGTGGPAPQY
The experiment can be described thus: EphB4 kinase inhibition assay. It is filed as biochemical. The method, then: (§3) Kinase activity and compound inhibition are investigated using one or more of the three assay formats described below. The ATP concentrations for each assay are selected to be close to the Michaelis-Menten constant (KM) for each individual kinase. Dose-response experiments are performed at 10 different inhibitor concentrations in a 384-well plate format. The data are fitted to four-parameter equation (2) below; where Y is the observed signal, X is the inhibitor concentration, Min is the background signal in the absence of enzyme (0% enzyme activity), Max is the signal in the absence of inhibitor (100% enzyme activity), IC50 is the inhibitor concentration at 50% enzyme inhibition and H represents the empirical Hill's slope to measure the cooperativity. Typically H is close to unity. Y=Min+(Max−Min)/(1+(X/IC50)^H) Equation (2) ^33P Phosphoryl Transfer Assay: […]
(§4) Greiner 384-well white, clear bottom, high binding plates are coated with 2 μg/well of protein or peptide substrate in a 50 μL volume overnight at ambient temperature. The coating buffer typically contains 40 μg/mL substrate, 22.5 mM Na2CO3, 27.5 mM NaHCO3, 150 mM NaCl and 3 mM NaN3. The coating solution is aspirated and the plates are washed once with 50 μL of assay buffer and padded dry. Subsequently compounds and enzymes are mixed with γ^33P-ATP (3.3 μCi/nmol) in a total volume of 20 uL in suitable assay buffers. The mixture is incubated at ambient temperature for 1.5-2.5 hrs and terminated by aspiration using a Molecular Devices EMBLA 96-head plate washer. The plates are subsequently washed 6-12 times with PBST or TBS buffer. Scintillation fluid (50 μl/well) is then added, the plates are sealed and activity assessed by liquid scintillation spectrometry using a Perkin Elmer MicroBeta TriLux.
as §2, §1

The target of the next experiment is EGFR (Homo sapiens, UniProt P00533). The experiment can be described thus: EGFR kinase inhibition assay. It is filed as biochemical. The method, then:
as §3, §4, §2, §1

EGFR, sequence (P00533 25-1210, species assumed): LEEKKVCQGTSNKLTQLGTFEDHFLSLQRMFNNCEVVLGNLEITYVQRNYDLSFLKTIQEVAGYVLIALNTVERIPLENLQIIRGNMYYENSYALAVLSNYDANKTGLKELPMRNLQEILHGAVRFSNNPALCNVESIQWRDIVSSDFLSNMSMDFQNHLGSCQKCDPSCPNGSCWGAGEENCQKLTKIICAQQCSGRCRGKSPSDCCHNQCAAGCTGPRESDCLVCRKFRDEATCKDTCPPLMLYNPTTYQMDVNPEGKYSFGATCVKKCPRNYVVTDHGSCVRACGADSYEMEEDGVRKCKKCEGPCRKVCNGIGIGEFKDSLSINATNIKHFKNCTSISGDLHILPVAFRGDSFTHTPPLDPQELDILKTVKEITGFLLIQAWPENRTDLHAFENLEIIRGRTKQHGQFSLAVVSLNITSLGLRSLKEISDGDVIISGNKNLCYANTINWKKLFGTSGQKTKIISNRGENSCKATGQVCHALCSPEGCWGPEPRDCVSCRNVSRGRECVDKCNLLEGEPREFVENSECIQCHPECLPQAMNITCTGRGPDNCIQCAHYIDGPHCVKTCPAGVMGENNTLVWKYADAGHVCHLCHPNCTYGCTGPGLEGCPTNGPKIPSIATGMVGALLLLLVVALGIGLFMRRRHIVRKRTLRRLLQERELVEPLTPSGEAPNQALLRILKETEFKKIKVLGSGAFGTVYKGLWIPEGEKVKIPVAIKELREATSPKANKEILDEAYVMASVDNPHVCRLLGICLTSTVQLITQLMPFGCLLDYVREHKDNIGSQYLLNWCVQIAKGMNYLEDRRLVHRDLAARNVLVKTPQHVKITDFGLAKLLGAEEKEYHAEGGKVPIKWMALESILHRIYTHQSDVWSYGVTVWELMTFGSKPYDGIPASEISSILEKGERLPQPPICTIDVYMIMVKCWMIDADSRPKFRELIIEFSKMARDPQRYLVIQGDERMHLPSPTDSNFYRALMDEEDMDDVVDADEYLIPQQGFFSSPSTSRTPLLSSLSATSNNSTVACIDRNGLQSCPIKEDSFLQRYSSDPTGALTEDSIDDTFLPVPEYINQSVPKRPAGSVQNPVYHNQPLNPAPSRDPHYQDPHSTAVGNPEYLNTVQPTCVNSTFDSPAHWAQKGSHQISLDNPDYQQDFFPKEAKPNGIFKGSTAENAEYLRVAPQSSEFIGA

The term IC50 denotes the concentration that inhibits the measured activity by half. Higher therefore signals lower potency. In the case of `CN1CCN(c2ccc3nc(-c4cc(/C=C/c5ccc(O)cc5)[nH]n4)[nH]c3c2)CC1` [Entry 1, 4-((E)-2-{3-[6-(4-methylpiperazin-1-yl)-1H-benzimidazol-2-yl]-1H-pyrazol-5-yl}ethenyl)phenol], the half-inhibitory concentration (IC50) at c-Kit was less than 50 nM; against flt-3, less than 50 nM; against EphB4, 500 to 5000 nM; at EGFR, greater than 5000 nM.

In the case of `CCN1CCN(c2ccc3[nH]c(-c4cc(-c5ccc(NC(=O)Nc6ccc(Cl)c(C(F)(F)F)c6)cc5)[nH]n4)nc3c2)CC1` [Entry 2, N-[4-chloro-3-(trifluoromethyl)phenyl]-N′-(4-{3-[5-(4-ethylpiperazin-1-yl)-1H-benzimidazol-2-yl]-1H-pyrazol-5-yl}phenyl)urea], the IC50 on c-Kit was less than 50 nM; against flt-3 it was less than 50 nM; against EphB4, greater than 5000 nM; on EGFR, greater than 5000 nM.

On to `CCc1cccc(NC(=O)Nc2ccc(-c3cc(-c4nc5cc(N6CCN(CC)CC6)ccc5[nH]4)n[nH]3)cc2)c1` [Entry 3, N-(3-ethylphenyl)-N′-(4-{3-[5-(4-ethylpiperazin-1-yl)-1H-benzimidazol-2-yl]-1H-pyrazol-5-yl}phenyl)urea], for which the IC50 is less than 50 nM on c-Kit, less than 50 nM on flt-3, 500 to 5000 nM at EphB4 and greater than 5000 nM against EGFR.

As for `CCN1CCN(c2ccc3[nH]c(-c4cc(-c5ccc(NC(=O)Nc6cccc(C(F)(F)F)c6)cc5)[nH]n4)nc3c2)CC1` [Entry 4, N-(4-{3-[5-(4-ethylpiperazin-1-yl)-1H-benzimidazol-2-yl]-1H-pyrazol-5-yl}phenyl)-N′-[3-(trifluoromethyl)phenyl]urea], the IC50 against c-Kit is less than 50 nM; against flt-3, less than 50 nM; against EphB4, 500 to 5000 nM; on EGFR, greater than 5000 nM.

On to `CC(=O)c1cccc(NC(=O)Nc2ccc(-c3cc(-c4nc5cc(N6CCN(C)CC6)ccc5[nH]4)n[nH]3)cc2)c1` [Entry 5, N-(3-acetylphenyl)-N′-(4-{3-[5-(4-methylpiperazin-1-yl)-1H-benzimidazol-2-yl]-1H-pyrazol-5-yl}phenyl)urea], for which the IC50 is less than 50 nM on c-Kit, less than 50 nM at flt-3, 500 to 5000 nM against EphB4 and greater than 5000 nM against EGFR.

As for `CN1CCN(c2ccc3[nH]c(-c4cc(-c5ccc(NC(=O)Nc6ccc(Cl)c(Cl)c6)cc5)[nH]n4)nc3c2)CC1` [Entry 6, N-(3,4-dichlorophenyl)-N′-(4-{3-[5-(4-methylpiperazin-1-yl)-1H-benzimidazol-2-l]-1H-pyrazol-5-yl}phenyl)urea], the IC50 was less than 50 nM on c-Kit, less than 50 nM against flt-3, greater than 5000 nM against EphB4 and greater than 5000 nM at EGFR.

Consider `CN1CCN(c2ccc3nc(-c4cc(-c5ccc(NC(=O)Nc6cccc(Br)c6)cc5)[nH]n4)[nH]c3c2)CC1` [Entry 7, N-(3-bromophenyl)-N′-(4-{3-[6-(4-methylpiperazin-1-yl)-1H-benzimidazol-2-yl]-1H-pyrazol-5-yl}phenyl)urea], for which the IC50 at c-Kit is less than 50 nM; on flt-3, less than 50 nM; at EphB4 it was greater than 5000 nM; against EGFR it was greater than 5000 nM.

On to `CN1CCN(c2ccc3[nH]c(-c4cc(-c5ccc(NC(=O)Nc6ccc(F)c(C(F)(F)F)c6)cc5)[nH]n4)nc3c2)CC1` [Entry 8, N-[4-fluoro-3-(trifluoromethyl)phenyl]-N′-(4-{3-[5-(4-methylpiperazin-1-yl)-1H-benzimidazol-2-yl]-1H-pyrazol-5-yl}phenyl)urea], for which the concentration for half-maximal inhibition (IC50) was less than 50 nM against c-Kit, less than 50 nM at flt-3, greater than 5000 nM on EphB4 and greater than 5000 nM against EGFR.

Consider `CN1CCN(c2ccc3[nH]c(-c4cc(-c5ccc(NC(=O)Nc6ccc(Oc7ccccc7)cc6)cc5)[nH]n4)nc3c2)CC1` [Entry 9, N-(4-{3-[5-(4-methylpiperazin-1-yl)-1H-benzimidazol-2-yl]-1H-pyrazol-5-yl}phenyl)-N′-[4-(phenyloxy)phenyl]urea], for which the IC50 against c-Kit was less than 50 nM; at flt-3, less than 50 nM; against EphB4, greater than 5000 nM; on EGFR, greater than 5000 nM.
